Measured values reported in patent US3933904A, “11,15-Dihydroxy-9,13-prostadienoic acid” (American Home Products Corporation, priority 1974, dated 1976).

Assays:
[1] = tested on: ADP induced platelet aggregation (human platelet rich plasma); experiment: ADP induced platelet aggregation in platelet rich plasma (modification of Born and Cross); assay type: cell-based; conditions: human PRP, in vitro; for IC50: Platelet, ADP induced (2 to 4 μM ADP), read-out: Concentration which inhibits 50% of platelet aggregation
Method: Platelet aggregation is the initial step in thrombus formation and it is considered that compounds which prevent aggregation or reduce platelet adhesiveness may inhibit the initiation of the arteriosclerotic process. The effect of drugs on aggregation is measured in platelet rich plasma (PRP) containing adenosine diphosphate (ADP) which markedly increases aggregation in vitro and may be a physiological agent for doing so in vivo.
Human blood is collected from fasted normal blood donors in siliconized 50 ml. Vacutainers that contain 3.8% sodium citrate. Centrifugation at 500 G. for 3 minutes at 5° C. separates the red blood cells from the PRP. The supernatant PRP is pipetted off and the remainder is centrifuged at 1000 G. for 10 minutes at 25° C. to obtain platelet poor plasma for standardization of the automated Payton aggregometer. In the running of the platelet aggregation test a cell containing 1.0 ml. of PRP is stirred at 1,100 rpm and the test compound is added in 0.2 ml. of buffered saline to give an initial concentration of 5 × 10^-^3 M, or 5 × 10^-^4 M. After 3 minutes, a concentration of ADP predetermined to yield marked platelet aggregation (2 to 4 μM) is added in 0.1 ml. of buffered saline. The curve of light transmission at 610 mμ is followed for 6 minutes. Compounds found to be active at the initial concentration are run at lower concentrations. The results are expressed as the concentration which gives 50% inhibition of the ADP induced aggregation.

[2] = tested on: bronchoconstricting effects of a standard dose of acetylcholine; experiment: Bronchodilation by aerosol inhalation (method of Rosenthale et al.): inhibition of the bronchoconstricting effects of a standard dose of acetylcholine; assay type: in vivo; conditions: guinea pig
Description: In using the compounds of the invention to produce bronchodilating effects in warm-blooded animals, they may be administered in a variety of dosage forms: oral, injectable, and aerosol inhalation. Aerosol inhalation is a preferred method because of its rapid onset of action, great potency, and specificity of action. The particular dosage to obtain the bronchodilating effect will vary with the particular compound employed, the particular animal involved, and the degree of bronchodilation desired. In the guinea pig, by aerosol inhalation, the dose to produce bronchodilation is from about 1.5 micrograms to about 100 micrograms, and preferably from about 1.5 to about 50 micrograms. The bronchodilation produced upon aerosol inhalation can be observed by the method of Rosenthale et al., J. Pharmacol. Exp. Ther., 178, 541 (1971). Using this procedure the following result was obtained.

[3] = Hypotension in the anesthetized dog, intravenous route; assay type: in vivo; conditions: dose 100 μg/kg
Method: Thus in the anesthetized dog by the intravenous route the dose to produce hypotension is from about 1 μg/kg. to about 200 μg/kg. and preferably from about 10 μg/kg. to about 100 μg/kg. Using this procedure the following results were obtained.

IC50 [1]	Compound	Inhibition of ADP induced platelet aggregation (at concentration) ([1]; at 2.6 × 10^-^6 M)	Percent Inhibition of the bronchoconstricting effects of a standard dose of acetylcholine ([2]; dose 15 μg)	Inhibition of ADP induced platelet aggregation (at concentration) ([1]; at 1.5 × 10^-^6 M)	Δb.p. [3]	Percent Inhibition of the bronchoconstricting effects of a standard dose of acetylcholine ([2]; dose 1.5 μg)
2.6 µM	CCCCC[C@H](O)/C=C/[C@H]1[C@H](O)C=C[C@@H]1C/C=C\CCCC(=O)O [7-(4α-hydroxy-5β-[(3S)-3-hydroxy-trans-1-octenyl]-2-cyclopenten-1α-yl)-cis-5-heptenoic acid]	50%	44%	–	–	–
1.2 µM	CCCCC[C@H](O)/C=C/[C@H]1[C@H](O)C=C[C@@H]1CCCCCCC(=O)O [4α-hydroxy-5β-[(3S)-3-hydroxy-trans-1-octenyl]-2-cyclopentene-1α-heptanoic acid]	–	–	63%	-34 mm. Hg	60%
